Results reported in patent publication US20100035756A1, “TRIAZOLOPHYRIDINE DERIVATIVES AS HERBICIDES” (SYNGENTA LIMITED, priority 2006, published 2010).

What was measured:
Format in all cases: in vivo
[1] = system: Stellaria media; test: Microscreen (pre-emergence), Example B3; details: preemergent application, 250 g/ha, evaluated 8 days later, 100%=total damage
[2] = system: Solanum nigrum; test: Microscreen (pre-emergence), Example B3; details: preemergent application, 250 g/ha, evaluated 8 days later, 100%=total damage
[3] = system: Amaranthus retroflexus; test: Microscreen (pre-emergence), Example B3; details: preemergent application, 250 g/ha, evaluated 8 days later, 100%=total damage
[4] = system: Setaria italica; test: Microscreen (pre-emergence), Example B3; details: preemergent application, 250 g/ha, evaluated 8 days later, 100%=total damage
[5] = system: Nasturtium officinale; test: Microscreen (pre-emergence), Example B3; details: preemergent application, 250 g/ha, evaluated 8 days later, 100%=total damage
[6] = system: Agrostis tenuis; test: Microscreen (pre-emergence), Example B3; details: preemergent application, 250 g/ha, evaluated 8 days later, 100%=total damage
[7] = system: Monocotyledonous and dicotyledonous test plants; test: Herbicidal action after emergence of the plants (post-emergence herbicidal action), Example B2; details: postemergent application, 125 g/ha, 2- to 3-leaf stage, evaluated after 2-3 weeks, 100%=total damage
Summary of the method: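 Sprayed at 2- to 3-leaf stage as aqueous suspension (wettable powder) or emulsion (emulsifiable concentrate) at 125 g/ha; plants grown on in greenhouse. Damage scored after 2–3 weeks (100% = total damage, 0% = none).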

[8] = system: Digitaria sanguinalis; test: Microscreen (pre-emergence), Example B3; details: preemergent application, 250 g/ha, evaluated 8 days later, 100%=total damage
[9] = system: Monocotyledonous and dicotyledonous test plants; test: Herbicidal action prior to emergence of the plants (pre-emergence action), Example B1; details: preemergence application, 250 g/ha, evaluated after 4 weeks, 100%=total damage, 0%=no damage
Summary of the method: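 Monocot and dicot species were sown in standard soil and sprayed pre-emergence, right after sowing, at 250 g/ha as an aqueous suspension or emulsion. Plants were grown in a greenhouse for 4 weeks. Damage was scored from 0% (none) to 100% (total).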

Row | Compound | herbicidal damage, Stellaria [1] [%] | herbicidal damage, Solanum [2] [%] | herbicidal damage, Amaranthus [3] [%] | herbicidal damage, Setaria [4] [%] | herbicidal damage, Nasturtium [5] [%] | herbicidal damage, Agrostis [6] [%] | herbicidal damage, ABUTH [7] [%] | herbicidal damage, AMARE [7] [%] | herbicidal damage, CHEAL [7] [%] | herbicidal damage, DIGSA [7] [%] | herbicidal damage, SETFA [7] [%] | herbicidal damage, Digitaria [8] [%] | herbicidal damage, ABUTH [9] [%] | herbicidal damage, AMARE [9] [%] | herbicidal damage, BRAPL [9] [%] | herbicidal damage, DIGSA [9] [%] | herbicidal damage, ECHCG [9] [%] | herbicidal damage, SETFA [9] [%] | herbicidal damage, STEME [9] [%] | herbicidal damage, VERPE [9] [%] | further results
1 | Cc1nnc2c(C(=O)C3=C(O)C(C)(C)C(=O)C(C)(C)C3=O)ccc(C(F)(F)F)n12 [Compound 5.3] | 90 | 100 | 100 | 50 | 100 | 50 | 80 | 70 | 80 | 50 | 50 | 100 | 100 | 100 | 70 | 100 | 100 | 60 | 100 | 100 | herbicidal damage, SINAR [7]: 80%; herbicidal damage, VERPE [7]: 90%; herbicidal damage, XANST [7]: 90%
2 | CCc1nnc2c(C(=O)C3=C(O)C4CCC(C4)C3=O)ccc(C(F)(F)F)n12 (stereo not drawn) [Compound 1.5] | 60 | 100 | 30 | 50 | 80 | 100 | 90 | 70 | 80 | 70 | 60 | 80 | 100 | 100 | 60 | 100 | 60 | 80 | 100 | 70 | herbicidal damage, SINAR [7]: 80%; herbicidal damage, VERPE [7]: 70%; herbicidal damage, XANST [7]: 80%
3 | Cc1nnc2c(C(=O)C3=C(O)CC(C)CC3=O)ccc(C(F)(F)F)n12 (stereo not drawn) [Compound 4.3] | 80 | 100 | 100 | 60 | 100 | 100 | – | – | – | – | – | 100 | 70 | 100 | 100 | 100 | 100 | 40 | 80 | 100 | –
4 | Cc1nnc2c(C(=O)C3=C(O)CCCC3=O)ccc(C(F)(F)F)n12 [Compound 3.4] | 70 | 0 | 80 | 60 | 80 | 100 | 90 | 80 | 60 | 80 | 80 | 100 | 80 | 60 | 80 | 70 | 70 | 30 | 30 | 50 | herbicidal damage, SINAR [7]: 90%; herbicidal damage, VERPE [7]: 100%; herbicidal damage, XANST [7]: 80%
5 | O=C(C1=C(O)C2CCC(C2)C1=O)c1ccc(C(F)(F)F)n2c(C3CC3)nnc12 (stereo not drawn) [Compound 1.8] | 80 | 90 | 0 | 100 | 100 | 100 | 90 | 90 | 90 | 80 | 80 | 100 | 100 | 100 | 100 | 100 | 40 | 60 | – | 70 | herbicidal damage, SINAR [7]: 90%; herbicidal damage, VERPE [7]: 100%; herbicidal damage, XANST [7]: 90%
6 | CCCC1CCC(=O)C(C(=O)c2ccc(C(F)(F)F)n3c(C)nnc23)=C1O (stereo not drawn) [41.6] | 80 | 90 | 100 | 0 | 100 | 100 | 80 | 80 | 80 | 80 | 70 | 90 | 70 | 100 | 60 | 90 | 70 | 70 | 50 | 50 | herbicidal damage, SINAR [7]: 80%; herbicidal damage, VERPE [7]: 80%; herbicidal damage, XANST [7]: 80%
7 | Cc1nnc2c(C(=O)C3=C(O)C4(CCC3=O)CC4)ccc(C(F)(F)F)n12 [41.2] | 90 | 100 | 100 | 80 | 100 | 100 | – | – | – | – | – | 100 | 80 | 100 | 80 | 100 | 100 | 80 | 70 | 90 | –
